From publication PMC6273140, “Anti-Inflammatory Chemical Profiling of the Australian Rainforest Tree Alphitonia petriei (Rhamnaceae)” (Molecules, 2016)
Where two headings read alike, the source gives them in different places.

How the values were obtained:
[1] = test system: NO production in LPS + IFN-γ activated RAW 264.7 macrophages; test: Inhibition of LPS + IFN-γ induced nitric oxide production (Griess assay); assay type: cell-based; conditions: for IC50: Mus musculus, read-out: NO Inhibition (IC50 in μM) (n = 8); for anti-inflammatory activity (in words): NO and TNF-α
Procedure: (§1) RAW 264.7 macrophages were grown in 175 cm^2 flasks on DMEM containing 5% foetal bovine serum (FBS) that was supplemented with penicillin (100 μg/mL), streptomycin (100 μg/mL) and L-glutamine (2 mM). The cell line was maintained in 5% CO2 at 37 °C, with media being replaced every 3–4 days. Once cells had grown to confluence in the culture flask, they were removed using a rubber policeman, as opposed to using trypsin, which can remove membrane-bound receptors. The cell suspension was concentrated by centrifugation for 3 min at 900 rpm and re-suspended in a small volume of fresh DMEM (with 1% antibiotics and 5% FBS); cell densities were estimated using a Neubauer counting chamber. The cell concentration was adjusted with DMEM (with 1% antibiotics and 5% FBS) to obtain 60,000 cells/100 μL cell suspension. An aliquot of 100 μL of this cell suspension was dispensed into the wells of 96-well plates. Plates were incubated at 37 °C, 5% CO2 for 18 h before the activation experiments were carried out.
(§2) For assays, 90 μL of each concentration of compounds (8 concentrations made by serial dilution from 0 µg/mL to 36 µg/mL compound in DMEM) were added an hour prior to addition of 10 µL of activator. A combination of 10 μg·mL^−1 LPS and 10 U·mL^−1 (1 unit = 0.1 ng/mL) IFN-γ, were used for activation. After activation, the cells were incubated for 24 h at 37 °C and then NO, TNF-α and cell viability was determined. Unactivated cells (exposed to media alone) were used as negative control and activated cells as positive control.
Nitric oxide was determined by Griess reagent quantification of nitrite. Griess reagent was freshly made up of equal volumes of 1% sulfanilamide and 0.1% napthyethylene-diamine in 5% HCl. From each well, 50 µL of supernatant was transferred to a fresh 96-well plate and mixed with 50 µL of Griess reagent and measured at 540 nm in a POLARstar Omega microplate reader (BMG Labtech, Mornington, Australia). The concentration of nitrite was calculated using a standard curve with […] (0–500 μM), and linear regression analysis.
(§3) Data calculations were performed using MS-Excel 2010 software. IC50 values were obtained by using the sigmoidal dose–response function in GraphPad Prism. The results were expressed as mean ± standard deviation (SD).

[2] = test system: TNF-α production in LPS + IFN-γ activated RAW 264.7 macrophages; test: Inhibition of LPS + IFN-γ induced TNF-α production (ELISA); assay type: cell-based; conditions: for IC50: Mus musculus, read-out: TNF-α Inhibition (IC50 in µM) (n = 3)
Procedure: as §1, §2
The diluted supernatants were used for determination of TNF-α using a commercial sandwich ELISA (Peprotech) according to the manufacturer’s protocol. In brief, the capture antibody was used at a concentration of 1.5 μg·mL^−1 in PBS (1.9 mM NaH2PO4, 8.1 mM Na2HPO4, 154 mM NaCl) (pH 7.4). Serial dilutions of TNF-α standard from 0 to 10,000 pg·mL^−1 in diluent (0.05% Tween-20, 0.1% BSA in PBS) were used as internal standard. TNF-α was detected with a biotinylated second antibody and an Avidin peroxidase conjugate with TMB as detection reagent. The colour development was monitored at 655 nm, taking readings every 5 min. After approximately 30 min the reaction was stopped using 0.5 M sulphuric acid and the absorbance was measured at 450 nm using a POLARstar Omega microplate reader (BMG Labtech, Mornington, Australia), expressed as a percentage in control cells after conversion of the concentrations, using a standard curve constructed with defined concentrations of TNF-α. Curve fitting of this standard curve and extrapolation of experimental data were performed using non-linear regression analysis.
as §3

[3] = Cell viability by the Alamar Blue assay (cytotoxicity); assay type: cell-based; conditions: mouse, RAW 264.7, 24 h, mean ± SD, read-out: Cytotoxicity (LC50 in μM) (n = 8)
Procedure: as §1, §2
One hundred microlitres of Alamar Blue solution (10% Alamar Blue (Resazurin) in DMEM media) was added to each well, incubated at 37 °C for 2 h. After incubation, fluorescence intensity was measured with the microplate reader (excitation at 530 nm and emission at 590 nm) and results were expressed as a percentage of the intensity of that in control cells, after background fluorescence was subtracted.
as §3

Bacillus subtilis = test system: Bacillus subtilis; parameters: method as in earlier work; conditions: cited from earlier work
SCC4 OSCC cells = test system: SCC4 OSCC cells; parameters: method as in doi:10.1016/j.jff.2015.07.017; conditions: read-out: suppression of proliferation IC50; cited from earlier work
SCC2095 OSCC cells = test system: SCC2095 OSCC cells; parameters: method as in doi:10.1016/j.jff.2015.07.017; conditions: read-out: suppression of proliferation IC50; cited from earlier work
[4] = test system: 12-O-tetradecanoylphorbol 13 acetate (TPA)-induced topical inflammation in mice ears; parameters: method as in PMID 16697209; conditions: cited from earlier work
[5] = test system: NO production in LPS-stimulated RAW 264.7 cells; parameters: method as in PMID 19557361; conditions: cited from earlier work
[6] = RAW264.7, RAW 264.7, LPS + IFN-γ, 24 h, Griess assay, mean ± SD
[7] = RAW264.7, RAW 264.7, LPS + IFN-γ, 24 h, ELISA, mean ± SD
[8] = RAW 264.7 macrophages activated with LPS and IFN-γ

IC50 [1, 6] [µM] | IC50 [2, 7] [µM] | Structure (SMILES) | CC50 at 24 h [3] [µM] | CC50 at 24 h [3, 8] [µM] | IC50 ([1]; RAW264.7, 24 h) [µM] | IC50 ([2]; RAW264.7, 24 h) [µM] | also measured
8.3 ± 1 | 23.5 ± 3.7 | C=C(C)[C@@H]1CC[C@]2(C(=O)O)CC[C@]3(C)[C@H](CC[C@@H]4[C@@]5(C)CC[C@H](O)C(C)(C)[C@@H]5CC[C@]43C)[C@@H]12 [Compound 5, betulinic acid] | – | 29.1 ± 4.4 | – | – | antibacterial activity (Bacillus subtilis): showed antibacterial activity
– | – | C=C(C)[C@@H]1CC[C@]2(C(=O)O)CC[C@]3(C)[C@H](CC[C@@H]4[C@@]5(C)[C@@H](C(=O)O)[C@H](O)C(C)(C)[C@@H]5CC[C@]43C)C12 (stereo partly shown) [Compound 1, emmolic acid] | > 36 | – | > 36 | > 36 | anti-inflammatory activity (in words) ([1]; RAW 264.7, LPS + IFN-γ): inactive
1160 ± 133 | 723 ± 261 | CC(C)Cc1ccc(C(C)C(=O)O)cc1 (stereo not shown) [Ibuprofen, ibuprofen, reference compound] | – | > 1500 | – | – | –
– | – | C=C(C)[C@@H]1CC[C@]2(C(=O)O)CC[C@]3(C)[C@H](CC[C@@H]4[C@@]5(C)C[C@@H](OC(=O)/C=C/c6ccc(O)cc6)[C@H](O)C(C)(C)[C@@H]5CC[C@]43C)[C@@H]12 [Compound 3, trans-coumaroyl alphitolic acid] | 4.8 ± 0.9 | – | 1.7 ± 0.3 | 10.9 ± 2.3 | increase in potency of NO inhibition compared with compound 2 ([1]; RAW 264.7, LPS + IFN-γ): ten-fold
– | – | C=C(C)C1CCC2(C(=O)O)CCC3(C)C(CCC4C5(C)CC(=O)C(O)C(C)(C)C5CCC43C)C12 (stereo not shown) [2-ketobetulinic acid, reference compound] | – | – | – | – | antibacterial activity (Bacillus subtilis): showed antibacterial activity
– | – | C=C(C)[C@@H]1CC[C@]2(C(=O)O)CC[C@]3(C)[C@H](CC[C@@H]4[C@@]5(C)C[C@@H](O)[C@H](O)C(C)(C)[C@@H]5CC[C@]43C)[C@@H]12 [Compound 2, alphitolic acid] | 18.6 ± 0.8 | – | 17.6 ± 0.7 | 22.7 ± 1.1 | IC50 (SCC4 OSCC cells): 12 µM; IC50 (SCC2095 OSCC cells): 15 µM; inhibition of TPA-induced topical inflammation [4]: inhibit
– | – | C=C(C)C1CCC2(C(=O)O)CCC3(C)C(CCC4C5(C)CCC(OC(=O)C=Cc6ccc(O)c(O)c6)C(C)(C)C5CCC43C)C12 (stereo not shown) [betulinic acid 3-O-caffeate] | – | – | – | – | NO inhibition (in words) [5]: most active compound
217 ± 43 | > 333 | O=C(O)Cc1ccccc1Nc1c(Cl)cccc1Cl [Diclofenac, diclofenac sodium, reference compound] | – | > 333 | – | – | –
– | – | C=C(C)[C@@H]1CC[C@]2(C(=O)O)CC[C@]3(C)[C@H](CC[C@@H]4[C@@]5(C)C[C@@H](OC(=O)/C=C\c6ccc(O)cc6)[C@H](O)C(C)(C)[C@@H]5CC[C@]43C)[C@@H]12 [Compound 4, cis-coumaroyl alphitolic acid] | 8 ± 0.3 | – | 3.5 ± 0.5 | 5.6 ± 0.4 | inhibition of TNF-α (in words) ([2]; RAW 264.7, LPS + IFN-γ): strong inhibition

Structure (SMILES) | IC50 [1, 6] [µM] | IC50 [2, 7] [µM] | CC50 at 24 h [3] [µM] | CC50 at 24 h [3, 8] [µM] | IC50 ([1]; RAW264.7, 24 h) [µM] | IC50 ([2]; RAW264.7, 24 h) [µM] | also measured
C=C(C)[C@@H]1CC[C@]2(C(=O)O)CC[C@]3(C)[C@H](CC[C@@H]4[C@@]5(C)[C@@H](C(=O)O)[C@H](OC(C)=O)C(C)(C)[C@@H]5CC[C@]43C)C12 (stereo partly shown) [Compound 6, emmolic acid acetate] | 14.7 ± 0.6 | > 36 | 13.1 ± 2.5 | – | – | – | anti-inflammatory activity (in words) ([1]; RAW 264.7, LPS + IFN-γ): moderate anti-inflammatory activity
